Where a SMILES comes first, the peptide text is derived from it. Bridges are numbered along the chain shown (N, C = ends). [ ]: non-standard residue; d: D form. The star is where a group is joined. d(aThr) = C[C@@H](O)[C@@H](N)C(=O)O; Isobutyryl = CC(C)C(=O)*; Dhb = C/C=C(\N)C(=O)O; Propionyl = CCC(=O)*
Key:
[1] = test system: lung, gastric, and colorectal cancers; conditions: cited from earlier work
[2] = test system: matrix metalloproteinase-2 and -9; conditions: lung, gastric, and colorectal cancers; cited from earlier work
M. aurum = experiment: Crystal violet biofilm formation assay, M. aurum; conditions: crystal violet staining, 0.2 µg/µL, KB medium, 28 °C, 2 d
Pseudomonas sp. G124 = experiment: Crystal violet biofilm formation assay, Pseudomonas sp. G124; conditions: crystal violet staining, 0.2 µg/µL, KB medium, 28 °C, 2 d
P. syringae pv. glycinea = experiment: Crystal violet biofilm formation assay, P. syringae pv. glycinea; conditions: crystal violet staining, 0.2 µg/µL, KB medium, 28 °C, 2 d
[3] = test system: Lysinibacillus sphaericus DSM1867; conditions: for inhibition zone against L. sphaericus: DSM1867, 0.1 mg/mL; for antibiotic activity against L. sphaericus (in words): agar diffusion, 5 µg/hole (Figure S97b)

Molecule	cancer cell motility (in words) [1]	expression of the matrix metalloproteinase-2 and -9 (in words) [2]	effect on biofilm formation in M. aurum (in words) (M. aurum)	effect on biofilm formation in Pseudomonas sp. G124 (in words) (Pseudomonas sp. G124)	effect on biofilm formation in P. syringae pv. glycinea (in words) (P. syringae pv. glycinea)	inhibition zone against L. sphaericus [3] [mm]	antibiotic activity against L. sphaericus (in words) [3]
nobilamide I [nobilamide I (8)]	suppressed	suppressed	less clear effect	less clear effect	worked best		
C/C=C1\NC(=O)[C@H](C)NC(=O)[C@H](C(C)C)NC(=O)[C@H](NC(=O)[C@H](Cc2ccccc2)NC(=O)[C@@H](CC(C)C)NC(=O)[C@@H](Cc2ccccc2)NC(=O)C(C)C)[C@@H](C)OC1=O [nobilamide J (9), nobilamide J] (Isobutyryl-[dF][dL]F[d(aThr)]VA[Dhb]; ester 4-C)						21.3	powerful antibiotic activity
C/C=C1\NC(=O)[C@H](C)NC(=O)[C@H](C(C)C)NC(=O)[C@H](NC(=O)[C@H](Cc2ccccc2)NC(=O)[C@@H](CC(C)C)NC(=O)[C@@H](Cc2ccccc2)NC(=O)CC)[C@@H](C)OC1=O [A-3302-A (2), A-3302-A] (Propionyl-[dF][dL]F[d(aThr)]VA[Dhb]; ester 4-C)						18.3	powerful antibiotic activity
nobilamide W [nobilamide W (22)]			strongly induced	strongly induced	strongly induced		
nobilamide S [nobilamide S (18)]				induced biofilm formation	did not promote biofilm formation		
nobilamide A [nobilamide A (4)]			strongly induced	strongly induced	strongly induced		did not exhibit antimicrobial activity
